Assay [1] deals with Rattus norvegicus. Nature of the assay: Antiinflammatory activity in carragenan-induced paw edema rat model assessed as reduction in edema thickness at 28 microg/kg, ip and measured after 4 hrs by digital Vernier caliper analysis. The settings on record: dose 28 µg/kg. Further details: scale not given: the % may be the effect or the level left. It is filed as functional.
Assay [2] deals with T1, Polyunsaturated fatty acid 5-lipoxygenase (Homo sapiens, UniProt P09917).
T1 sequence (P09917 whole entry): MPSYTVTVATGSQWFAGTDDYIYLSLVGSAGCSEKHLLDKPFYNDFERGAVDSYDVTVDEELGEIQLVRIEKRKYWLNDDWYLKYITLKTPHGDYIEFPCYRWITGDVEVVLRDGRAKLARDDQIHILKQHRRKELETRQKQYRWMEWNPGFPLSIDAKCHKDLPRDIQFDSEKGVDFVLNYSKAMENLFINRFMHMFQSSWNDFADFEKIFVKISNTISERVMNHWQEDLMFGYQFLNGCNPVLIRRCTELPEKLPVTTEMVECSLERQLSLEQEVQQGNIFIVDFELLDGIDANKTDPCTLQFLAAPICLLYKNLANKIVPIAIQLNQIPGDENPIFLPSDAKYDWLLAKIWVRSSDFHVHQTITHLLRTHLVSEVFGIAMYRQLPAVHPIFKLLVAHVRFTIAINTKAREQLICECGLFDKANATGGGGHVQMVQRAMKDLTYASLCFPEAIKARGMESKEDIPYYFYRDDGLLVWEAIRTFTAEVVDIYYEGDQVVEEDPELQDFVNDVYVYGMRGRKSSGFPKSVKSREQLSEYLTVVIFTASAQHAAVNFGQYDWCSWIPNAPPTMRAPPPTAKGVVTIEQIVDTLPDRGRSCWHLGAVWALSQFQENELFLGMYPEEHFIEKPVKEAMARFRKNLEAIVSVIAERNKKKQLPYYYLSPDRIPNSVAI
Nature of the assay: Inhibition of 5-LOX (unknown origin) by enzyme immune assay.

A short description of assay [3]: Selectivity index, ratio IC50 for inhibition of ovine COX-1 to IC50 for inhibition of recombinant human COX-2.
Assay [4] concerns the target T2, Prostaglandin G/H synthase 2 (Homo sapiens, UniProt P35354).
T2 sequence (P35354 whole entry): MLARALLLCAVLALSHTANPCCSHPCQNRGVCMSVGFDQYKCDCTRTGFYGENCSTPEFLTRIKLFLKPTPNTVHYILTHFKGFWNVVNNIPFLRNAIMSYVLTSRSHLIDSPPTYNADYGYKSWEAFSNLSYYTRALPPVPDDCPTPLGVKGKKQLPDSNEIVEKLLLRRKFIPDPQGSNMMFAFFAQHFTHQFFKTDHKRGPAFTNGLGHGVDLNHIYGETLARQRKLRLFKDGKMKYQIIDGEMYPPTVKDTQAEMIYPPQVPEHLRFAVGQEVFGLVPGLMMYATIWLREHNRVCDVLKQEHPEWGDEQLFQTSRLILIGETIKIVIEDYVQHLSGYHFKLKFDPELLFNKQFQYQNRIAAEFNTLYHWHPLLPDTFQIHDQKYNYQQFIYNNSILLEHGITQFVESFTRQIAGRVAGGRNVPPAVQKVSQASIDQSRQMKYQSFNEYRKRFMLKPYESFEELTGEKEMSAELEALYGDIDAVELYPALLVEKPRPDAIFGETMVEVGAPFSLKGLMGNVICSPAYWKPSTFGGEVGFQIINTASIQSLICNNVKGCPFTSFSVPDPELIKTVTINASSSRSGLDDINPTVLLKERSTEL
Nature of the assay: Inhibition of recombinant human COX-2 by enzyme immune assay.

The target in assay [5] is T1, Polyunsaturated fatty acid 5-lipoxygenase. Nature of the assay: Inhibition of 5-LOX (unknown origin).
Assay [6] has as its target T2, Prostaglandin G/H synthase 2. Nature of the assay: Inhibition of COX-2 (unknown origin) using arachidonic acid as substrate preincubated for 15 mins followed by substrate addition by colorimetric assay.
A short description of assay [7]: Inhibition of soybean 5-LOX using linoleic acid as substrate by spectrophotometric analysis. Further details: species or system Glycine max.
For assay [8], the target named is T2, Prostaglandin G/H synthase 2. Nature of the assay: Inhibition of COX-2 (unknown origin) by colorimetric method.
The species entered for assay [9] is Homo sapiens. Nature of the assay: Selectivity index, ratio of IC50 for inhibition of human COX1 to IC50 for inhibition of human COX2.
The subject of assay [10] is Rattus norvegicus. Nature of the assay: Antiinflammatory activity in po dosed Sprague-Dawley rat assessed as reduction in carragenan-induced paw edema and measured after 4 hrs by vernier caliper method. It is filed as functional. Also on record: scale not given: the % may be the effect or the level left.
Assay [11] addresses T2, Prostaglandin G/H synthase 2. Nature of the assay: Inhibition of recombinant human COX-2 using arachidonic acid as substrate preincubated for 10 mins followed by substrate addition and measured after 2 mins by ELISA.
In assay [12] the target is T1, Polyunsaturated fatty acid 5-lipoxygenase. Nature of the assay: Inhibition of 5-LOX (unknown origin) by colorimetric assay.
Assay [13] relates to Rattus norvegicus. Nature of the assay: Antiinflammatory activity in Wistar rat carragenan-induced paw edema model assessed as reduction in edema thickness at 50 mg/kg, po and measured after 2 hrs. It is filed as functional. Further details: scale not given: the % may be the effect or the level left.
The target of assay [14] is T2, Prostaglandin G/H synthase 2. Nature of the assay: Inhibition of COX-2 (unknown origin) using arachidonic acid as substrate preincubated for 5 mins followed by substrate addition by colorimetric assay.
Assay [15] shares this target. Nature of the assay: Inhibition of COX-2 (unknown origin).
The target in assay [16] is T3, Prostaglandin G/H synthase 1 (Homo sapiens, UniProt P23219). Nature of the assay: Inhibition of recombinant human COX-1 using arachidonic acid as substrate by ELISA. Background: ELISA stands for enzyme-linked immunosorbent assay.
T3 sequence (P23219 whole entry): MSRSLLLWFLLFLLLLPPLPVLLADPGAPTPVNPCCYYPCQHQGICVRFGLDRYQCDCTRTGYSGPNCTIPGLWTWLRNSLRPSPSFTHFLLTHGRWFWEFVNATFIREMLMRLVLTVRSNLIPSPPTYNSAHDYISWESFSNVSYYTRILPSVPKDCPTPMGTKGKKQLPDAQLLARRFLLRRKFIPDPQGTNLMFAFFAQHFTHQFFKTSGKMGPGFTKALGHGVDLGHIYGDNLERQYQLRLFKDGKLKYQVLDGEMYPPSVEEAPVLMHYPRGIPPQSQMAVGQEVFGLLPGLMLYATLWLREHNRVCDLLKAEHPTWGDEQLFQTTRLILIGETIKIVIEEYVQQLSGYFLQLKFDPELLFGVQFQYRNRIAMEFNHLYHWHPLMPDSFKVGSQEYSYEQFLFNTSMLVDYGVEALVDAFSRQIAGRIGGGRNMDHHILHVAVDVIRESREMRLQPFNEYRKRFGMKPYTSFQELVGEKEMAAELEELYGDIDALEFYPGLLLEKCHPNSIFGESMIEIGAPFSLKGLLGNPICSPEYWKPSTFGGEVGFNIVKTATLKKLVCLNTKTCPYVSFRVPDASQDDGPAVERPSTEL
Assay [17] concerns the target T1, Polyunsaturated fatty acid 5-lipoxygenase. Nature of the assay: Inhibition of 5-LOX (unknown origin) by fluorometric analysis.
Assay [18] concerns the target T2, Prostaglandin G/H synthase 2. Nature of the assay: Inhibition of recombinant human COX-2 using arachidonic acid as substrate by ELISA.
The target is the same in assay [19]. Nature of the assay: Inhibition of recombinant human COX-2 using arachidonic acid as substrate preincubated for 10 mins followed by substrate addition and measured after 2 mins by Ellman's reagent based ELISA.
Assay [20] addresses T1, Polyunsaturated fatty acid 5-lipoxygenase. Nature of the assay: Inhibition of recombinant human 5-LOX using arachidonic acid as substrate incubated for 10 mins by spectrophotometric analysis.
Assay [21] has the same target. Nature of the assay: Inhibition of recombinant human 5-LOX using arachidonic acid as substrate preincubated for 10 mins followed by substrate addition and measured after 10 mins by ELISA.
For assay [22] the target is unchanged. Nature of the assay: Inhibition of 5-LOX (unknown origin) using linoleic acid as substrate preincubated for 5 mins followed by substrate addition by spectrophotometric assay.
For assay [23], the system named is Rattus norvegicus. Nature of the assay: Antiinflammatory activity in Wistar rat assessed as reduction in carragenan-induced paw edema at 10 mg/kg, po for 7 days followed by carrageenan stimulation and measured upto 6 hrs by vernier caliper method. Also on record: scale not given: the % may be the effect or the level left. Format: functional. The settings on record: time 7 day.

The target in assay [24] is T3, Prostaglandin G/H synthase 1. Nature of the assay: Inhibition of human COX-1 using arachidonic acid as substrate preincubated for 10 mins followed by substrate addition and measured after 2 mins by ELISA.
For assay [25], the target named is T1, Polyunsaturated fatty acid 5-lipoxygenase. Nature of the assay: Inhibition of 5-LOX (unknown origin) by spectrophotometric method.
For assay [26], the target named is T2, Prostaglandin G/H synthase 2. Nature of the assay: Inhibition of COX-2 (unknown origin) by 2,7-dichlorofluorescein dye based spectrophotometric method.

The structures appear in SMILES notation. pIC50: −log10 of the molar value.

As to `CCCCCCNC(=O)c1cc(NCc2cc(O)ccc2O)ccc1O`, the Activity in assay [1] was 40.05%. Further, the pIC50 was 4.92 in assay [2] and 7.00 in assay [4]. In assay [3], the Ratio IC50 amounted to 145.
The compound `O=C1N/C(=N\c2nc(-c3ccccc3)cs2)S/C1=C\c1ccc(Cl)cc1` had a pIC50 in assay [5] of 4.27.
For the compound `NC(=O)c1ccc(-c2nc(CSc3nc4ccccc4s3)no2)cc1`, the pIC50 was 5.17 in [6] and 5.19 in assay [7].
Turning to `N#Cc1c(-c2ccc(Cl)cc2)csc1NC(=O)CN1CCOCC1`, the pIC50 is 5.26 in assay [8] and 5.36 in assay [5]. Moreover, the Ratio IC50 in [9] stood at 8.37. The Activity in [10] is on record as 58.77%.
For the compound `CCc1cc(OC)c(OC)c(OC)c1`, in [11], the pIC50 is 6.74. Also, the Ratio IC50 in assay [9] stood at 668.
In the case of `CC1=NN(c2ccc(S(N)(=O)=O)cc2)C(=O)/C1=N/Nc1ccc(C(=O)O)cc1`, the pIC50 in assay [12] is 6.28; in [14], 6.11. The Activity in [13] is 72.72%.
In the case of `N=C1/C(=N\Nc2ccc(S(N)(=O)=O)cc2)C(N)=NN1c1ccc(S(N)(=O)=O)cc1`, the results for the pIC50 in assay [12] and in assay [14] were 5.56 and 6.04, respectively.
In turn, `COc1cc(C(=O)O)cc(O)c1O` gave a pIC50 in [15] of 4.63.
With `COc1cccc(/C=c2\c(=O)[nH]n3c(=O)c4ccccc4nc23)c1`, the values for the pIC50 in assay [16], in assay [17] and in assay [18] were 5.83, 6.22 and 6.31, respectively.
As for `CC1=NN(c2ccccc2C(=O)O)C(=O)/C1=N/Nc1ccc(S(N)(=O)=O)cc1`, the pIC50 was 6.28 in assay [12] and 6.14 in assay [14]. For the same compound, the Activity in [13] was determined as 72.72%.
In the case of `CC(C)NC(=O)c1cc(N)ccc1O`, the pIC50 in assay [2] was 5.47.
For `CC1=NN(c2ccc(S(N)(=O)=O)cc2)C(=O)/C1=N/Nc1ccc(S(N)(=O)=O)cc1`, the pIC50 is 6.24 in [12] and 6.18 in [14].
As to `CC1=CCCC2C1(C)CCC(C)C2(C)CCC1=CC(=O)OC1O` (stereo not drawn), the values for the pIC50 in [19] and in assay [20] were 4.99 and 4.84, respectively.
With `O=C(NC1CCCCC1)c1cc(NCc2cc(O)ccc2O)ccc1O`, the Activity in assay [1] is reported as 114.12%. For the same compound, the pIC50 in assay [4] is 7.00.
As to `Oc1cc(O)cc(/C=C/c2ccc(O)c(O)c2)c1` [PICEATANNOL], the pIC50 in assay [21] is 6.41.
As to `CON(C)C(=O)c1ccc(-c2nc(CSc3nc4ccccc4s3)no2)cc1`, the pIC50 in assay [6] is 5.12; in assay [7] it was 5.29.
As to `O=C(c1sc(N(c2ccccc2)c2ccccc2)nc1-c1ccc([N+](=O)[O-])cc1)c1cccc2ccccc12`, the results for the pIC50 in assay [22], in assay [11] and in assay [24] were 6.54, 7.15 and 5.09, respectively. In addition, the Activity in assay [23] turned out to be 63%. For the same compound, in assay [9], the Ratio IC50 amounted to 115.
On to `O=C(O)c1ccc(O)c(O)c1` [PROTOCATECHUIC ACID], for which, in assay [15], the pIC50 was 4.60.
Turning to `CCCCC(=O)OCC[C@@H]1CC=C[C@@H]2[C@H]1C(=O)O[C@@]2(C)CO`, the results for the negative logarithm of the IC50 (pIC50) in assay [25] and in assay [26] were 2.59 and 2.62, respectively.

The pIC50 is −log10 of the IC50, conventionally taken in molar units.
